Experimental data published in patent publication US12503475B2 (Centessa Pharmaceuticals (UK) Limited, priority 2020, dated 2025).
Like-named read-outs stand apart in the source and are kept apart here.

Target: T1, human orexin type 2 receptor (hOX2R) (Homo sapiens, UniProt O43614)
T1 construct: expressed in transfected cells
T1 sequence (O43614 1-444): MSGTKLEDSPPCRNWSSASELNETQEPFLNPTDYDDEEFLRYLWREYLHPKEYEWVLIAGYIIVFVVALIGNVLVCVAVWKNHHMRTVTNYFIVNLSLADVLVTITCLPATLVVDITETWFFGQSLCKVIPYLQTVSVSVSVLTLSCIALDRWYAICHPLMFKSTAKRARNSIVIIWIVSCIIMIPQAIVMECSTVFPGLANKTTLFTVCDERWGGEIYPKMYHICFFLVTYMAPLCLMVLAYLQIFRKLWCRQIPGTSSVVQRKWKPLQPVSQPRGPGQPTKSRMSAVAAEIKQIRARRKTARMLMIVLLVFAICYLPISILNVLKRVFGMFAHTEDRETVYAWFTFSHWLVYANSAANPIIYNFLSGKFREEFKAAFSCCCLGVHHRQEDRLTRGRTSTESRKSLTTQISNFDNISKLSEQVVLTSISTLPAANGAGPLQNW
Test: Measurement of orexin type 2 receptor agonist activity (FLIPR calcium fluorescence)
Format: cell-based
Settings: for EC50: read-out: hOx2 pEC50 (converted); for Emax: CHO, read-out: hOx2 Emax (%)
Summary of the method: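 Agonism was read as fluorescence in cells stably expressing human OX2R. E. is the response at 10 μM relative to orexin A as full agonist (100%).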

[1] = CHO cells expressing hOX2R, FLIPR calcium fluorescence

EC50 [1] [nM]	Emax [1] [%]	Compound	Emax [%]
10 to 100	90 to 100	CCS(=O)(=O)NC1C(Cc2cc(F)cc(-c3ccccc3)c2F)N(C(=O)[C@H](O)CF)CC12CC2 (stereo in doubt) [Compound 356, N-((6S,7S)-6-((2,5-difluoro-[1,1′-biphenyl]-3-yl)methyl)-5-((S)-3-fluoro-2-hydroxypropanoyl)-5-azaspiro[2.4]heptan-7-yl)ethanesulfonamide]	–
1 to 10	90 to 100	CS(=O)(=O)N[C@@H]1[C@H](Cc2cccc(-c3ccccc3)c2F)N(C(=O)NC[C@@H]2CCOC2)CC12CC2 [Compound 329, (6S,7S)-6-((2-fluoro-[1,1′-biphenyl]-3-yl)methyl)-7-(methylsulfonamido)-N-(((S)-tetrahydrofuran-3-yl)methyl)-5-azaspiro[2.4]heptane-5-carboxamide]	–
1 to 10	90 to 100	CS(=O)(=O)NC1C(Cc2cccc(-c3ccccc3)c2)N(C(=O)[C@H]2C[C@H](F)C2)CC12CC2 (mixture of isomers) [Compound 49, N-(6-([1,1′-biphenyl]-3-ylmethyl)-5-((1r,3r)-3-fluorocyclobutane-1-carbonyl)-5-azaspiro[2.4]heptan-7-yl)methanesulfonamide]	–
0.0794 to 1	90 to 100	CC1(CNC(=O)N2CC3(CC3)[C@H](NS(C)(=O)=O)[C@@H]2Cc2cccc(-c3ccccc3)c2F)COC1 [Compound 322, (6S,7S)-6-((2-fluoro-[1,1′-biphenyl]-3-yl)methyl)-N-((3-methyloxetan-3-yl)methyl)-7-(methylsulfonamido)-5-azaspiro[2.4]heptane-5-carboxamide]	–
1 to 10	90 to 100	CO[C@@H](C)CN(C)C(=O)N1CC2(CC2)[C@H](NS(C)(=O)=O)[C@@H]1Cc1cccc(-c2ccccc2)c1F [Compound 316]	–
1 to 10	90 to 100	CC(C)C(=O)N1CC2(CC2)[C@H](NS(C)(=O)=O)[C@@H]1Cc1cccc(-c2ccccc2F)c1 (racemic) [Compound 297]	–
1 to 10	90 to 100	COC[C@@H]1CCN1C(=O)N1CC2(CC2)[C@H](NS(C)(=O)=O)[C@@H]1Cc1cccc(-c2ccccc2)c1F [Compound 102, N-((6S,7S)-6-((2-fluoro-[1,1′-biphenyl]-3-yl)methyl)-5-((S)-2-(methoxymethyl)azetidine-1-carbonyl)-5-azaspiro[2.4]heptan-7-yl)methanesulfonamide]	–
1 to 10	90 to 100	O=C(NCCF)N1CC2(CC2)[C@H](NS(=O)(=O)CF)[C@@H]1Cc1cc(F)cc(-c2ccccc2)c1F [Compound 371, (6S,7S)-6-((2,5-difluoro-[1,1′-biphenyl]-3-yl)methyl)-N-(2-fluoroethyl)-7-((fluoromethyl)sulfonamido)-5-azaspiro[2.4]heptane-5-carboxamide]	–
10 to 100	90 to 100	C[C@@H](C#N)S(=O)(=O)N[C@@H]1[C@H](Cc2cccc(-c3ccccc3)c2)N(C(=O)[C@H]2CCO2)CC12CC2 [Compound 338, (S)-N-((6S,7S)-6-([1,1′-biphenyl]-3-ylmethyl)-5-((R)-oxetane-2-carbonyl)-5-azaspiro[2.4]heptan-7-yl)-1-cyanoethane-1-sulfonamide]	–
0.0794 to 1	90 to 100	O=C(NCC(F)F)N1CC2(CC2)[C@H](NS(=O)(=O)C(F)F)[C@@H]1Cc1cccc(-c2cc(F)cc(F)c2)c1F [Compound 382, (6S,7S)-N-(2,2-difluoroethyl)-7-((difluoromethyl)sulfonamido)-6-((2,3′,5′-trifluoro-[1,1′-biphenyl]-3-yl)methyl)-5-azaspiro[2.4]heptane-5-carboxamide]	–
1 to 10	90 to 100	COCCN(C)C(=O)N1CC2(CC2)[C@H](NS(C)(=O)=O)[C@@H]1Cc1cccc(-c2ccccc2)c1F [Compound 326, (6S,7S)-6-((2-fluoro-[1,1′-biphenyl]-3-yl)methyl)-N-(2-methoxyethyl)-N-methyl-7-(methylsulfonamido)-5-azaspiro[2.4]heptane-5-carboxamide]	–
10 to 100	90 to 100	CC[C@@H](O)C(=O)N1CC2(CC2)[C@H](NS(C)(=O)=O)[C@@H]1Cc1cccc(-c2ccccc2)c1 (racemic) [Compound 300]	–
100 to 1000	80 to 90	CC(C)(F)C(=O)N1CC2(CC2)C(NS(C)(=O)=O)C1Cc1cccc(-c2ccccc2)c1 (racemic) [Compound 13, N-(6-([1,1′-biphenyl]-3-ylmethyl)-5-(2-fluoro-2-methylpropanoyl)-5-azaspiro[2.4]heptan-7-yl)methanesulfonamide]	–
1 to 10	90 to 100	CN(CCF)C(=O)N1CC2(CC2)[C@H](NS(C)(=O)=O)[C@@H]1Cc1cccc(-c2ccccc2)c1F [Compound 82, (6S,7S)-6-((2-fluoro-[1,1′-biphenyl]-3-yl)methyl)-N-(2-fluoroethyl)-N-methyl-7-(methylsulfonamido)-5-azaspiro[2.4]heptane-5-carboxamide]	–
1 to 10	90 to 100	CC(C)(O)C(=O)N1CC2(CC2)[C@H](NS(=O)(=O)CF)[C@@H]1Cc1cccc(-c2cc(F)cc(F)c2)c1F [Compound 192, 1-fluoro-N-((6S,7S)-5-(2-hydroxy-2-methylpropanoyl)-6-((2,3′,5′-trifluoro-[1,1′-biphenyl]-3-yl)methyl)-5-azaspiro[2.4]heptan-7-yl)methanesulfonamide]	–
0.0794 to 1	90 to 100	CN(C)S(=O)(=O)N[C@@H]1[C@H](Cc2cccc(-c3ccccc3)c2F)N(C(=O)[C@H]2CCO2)CC12CC2 [Compound 64, N-((6S,7S)-6-((2-fluoro-[1,1′-biphenyl]-3-yl)methyl)-5-((R)-oxetane-2-carbonyl)-5-azaspiro[2.4]heptan-7-yl)-N,N-dimethylsulfuric diamide]	–
1 to 10	90 to 100	CC(C)(O)C(=O)N1CC2(CC2)[C@H](NS(=O)(=O)C2CC2)[C@@H]1Cc1cccc(-c2cc(F)cc(F)c2)c1F [Compound 230, N-((6S,7S)-5-(2-hydroxy-2-methylpropanoyl)-6-((2,3′,5′-trifluoro-[1,1′-biphenyl]-3-yl)methyl)-5-azaspiro[2.4]heptan-7-yl)cyclopropanesulfonamide]	–
10 to 100	90 to 100	CCN(C)S(=O)(=O)N[C@@H]1[C@H](Cc2cccc(-c3ccccc3)c2)N(C(=O)[C@H]2CCO2)CC12CC2 [Compound 78, N-((6S,7S)-6-([1,1′-biphenyl]-3-ylmethyl)-5-((R)-oxetane-2-carbonyl)-5-azaspiro[2.4]heptan-7-yl)-N-methyl-N-ethylsulfuric diamide]	–
10 to 100	80 to 90	O=C([C@H]1CCO1)N1CC2(CC2)[C@H](NS(=O)(=O)C(F)(F)F)[C@@H]1Cc1cccc(-c2ccccc2)c1F [Compound 167, 1,1,1-trifluoro-N-((6S,7S)-6-((2-fluoro-[1,1′-biphenyl]-3-yl)methyl)-5-((R)-oxetane-2-carbonyl)-5-azaspiro[2.4]heptan-7-yl)methanesulfonamide]	–
1 to 10	90 to 100	CS(=O)(=O)N[C@@H]1[C@H](Cc2cccc(-c3ccccc3)c2F)N(C(=O)NCCF)CC12CC2 [Compound 86, (6S,7S)-6-((2-fluoro-[1,1′-biphenyl]-3-yl)methyl)-N-(2-fluoroethyl)-7-(methylsulfonamido)-5-azaspiro[2.4]heptane-5-carboxamide]	–
1 to 10	90 to 100	O=C([C@H]1CCO1)N1CC2(CC2)[C@H](NS(=O)(=O)C(F)F)[C@@H]1Cc1cc(F)cc(-c2cc(F)cc(F)c2)c1F [Compound 220, 1,1-difluoro-N-((6S,7S)-5-((R)-oxetane-2-carbonyl)-6-((2,3′,5,5′-tetrafluoro-[1,1′-biphenyl]-3-yl)methyl)-5-azaspiro[2.4]heptan-7-yl)methanesulfonamide]	–
1 to 10	90 to 100	CO[C@@H](C)CNC(=O)N1CC2(CC2)[C@H](NS(C)(=O)=O)[C@@H]1Cc1cccc(-c2ccccc2)c1F [Compound 336, (6S,7S)-6-((2-fluoro-[1,1′-biphenyl]-3-yl)methyl)-N-((S)-2-methoxypropyl)-7-(methylsulfonamido)-5-azaspiro[2.4]heptane-5-carboxamide]	–
10 to 100	80 to 90	CC(F)(F)C(=O)N1CC2(CC2)C(NS(C)(=O)=O)C1Cc1cccc(-c2cccc(F)c2)c1F (racemic) [Compound 24, N-(6-((2,3′-difluoro-[1,1′-biphenyl]-3-yl)methyl)-5-(2,2-difluoropropanoyl)-5-azaspiro[2.4]heptan-7-yl)methanesulfonamide]	–
0.0794 to 1	90 to 100	[2H]C([2H])([2H])c1cccc(-c2cccc(C[C@H]3[C@@H](NS(=O)(=O)C(F)F)C4(CC4)CN3C(=O)[C@H]3CCO3)c2F)c1 [Compound 199, 1,1-difluoro-N-((6S,7S)-6-((2-fluoro-3′-(methyl-d3)-[1,1′-biphenyl]-3-yl)methyl)-5-((R)-oxetane-2-carbonyl)-5-azaspiro[2.4]heptan-7-yl)methanesulfonamide]	–

Compound	EC50 [1] [nM]	Emax [1] [%]	Emax [%]
C[C@@H](F)CNC(=O)N1CC2(CC2)[C@H](NS(=O)(=O)CF)[C@@H]1Cc1cccc(-c2ccccc2)c1F [Compound 206, (6S,7S)-6-((2-fluoro-[1,1′-biphenyl]-3-yl)methyl)-7-((fluoromethyl)sulfonamido)-N—((R)-2-fluoropropyl)-5-azaspiro[2.4]heptane-5-carboxamide]	1 to 10	–	90 to 100
